Laboratory results from article PMC10714400, “Antimicrobial Peptide–Peptoid Hybrids with and without Membrane Disruption” (ACS Infectious Diseases, 2023).
Read-outs that look alike come from different tables or passages of the source.

Legend:
[1] = tested on: A. baumannii ATCC19606; settings: Table S2
Outline: (§1)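 MTT added (20–30 min, room temperature); MIC read by eye as lowest concentration inhibiting visible growth (yellow). Polymyxin B positive control from 16 μg/mL.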

[2] = tested on: E. cloacae
Outline: (§2)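 MIC taken visually after MTT staining (20–30 min, RT) as the lowest compound concentration preventing growth, i.e. yellow wells. Inoculum ~5 × 10^5 CFU/well in MH broth, 37 °C static for ca. 18 h; polymyxin B control started at 16 μg/mL.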

[3] = tested on: E. coli W3110
Outline: as §2

[4] = tested on: K. pneumoniae NCTC418; settings: Table S2
Outline: as §1

[5] = tested on: K. pneumoniae OXA-48
Outline: as §2

[6] = tested on: P. aeruginosa PAO1
Outline: as §2

[7] = tested on: PA14 2P4 (pmrB); settings: Table S3; […] MH at pH 8.5
Outline: as §2

[8] = tested on: PA14 4.13 (phoQ)
Outline: as §2

[9] = tested on: PA14 4.18 (pmrB)
Outline: as §2

[10] = tested on: S. aureus COL (MRSA)
Outline: as §2

[11] = tested on: ZEM-1A (clinical MDR P. aeruginosa isolate)
Outline: as §2

[12] = tested on: ZEM9A (clinical MDR P. aeruginosa isolate)
Outline: as §2

[13] = tested on: human red blood cells (hRBC); assay: Minimum hemolytic concentration (MHC); assay type: cell-based; settings: hRBC, 10 mM phosphate buffer, 150 mM NaCl, pH 7.4, 25 °C, 4 h
Description: We also measured minimal hemolysis concentrations (MHC) on human red blood cells by serial 2-fold dilution as an indication of toxicity against eukaryotic cells (Table 1).

[14] = tested on: B. cenocepacia; settings: MH pH 7.4, 16–20 h at 37 °C
Outline: as §2

[15] = tested on: P. aeruginosa PA14
Outline: as §2

[16] = tested on: S. aureus Newman
Outline: as §2

[17] = tested on: S. epidermis
Outline: as §2

[18] = tested on: S. maltophilia
Outline: as §2

[19] = tested on: P. aeruginosa PAO1; assay: Bacterial count after treatment, before TEM sample preparation; assay type: cell-based, Pseudomonas aeruginosa; settings: P. aeruginosa PAO1, […] MH pH 8.5, 10x MIC
Experimental: (§3) Just before the samples were further prepared for the microscopy, surviving bacteria were quantified by plating 10-fold dilutions of samples in sterilized normal saline (NaCl 0.9%) on LB agar plates. […] The assay was performed in triplicate. Each bacteria sample was centrifuged at 12,000 rpm for 3 min, and the supernatant was discarded. The samples were then further processed and imaged using our previously described protocol.[64]
8. Transmission electron microscopy (TEM)
Table S4: Bacterial counts, 2 hours after treatment, before TEM sample preparation. Data represents triplicates.
Bacteria count after treatment at 10x MIC and 2 h of incubation at 37 °C
Control (non-treated cells) 1 × 10^8 CFU (100)

[20] = tested on: P. aeruginosa PAO1; assay: Transmission electron microscopy (TEM); assay type: cell-based, Pseudomonas aeruginosa; settings: P. aeruginosa PAO1, 10 × MIC, […] MH at pH 8.5, 2 h at 37 °C
Experimental: Scale bars are 500 nm and 1 μm. Red arrows: membrane perturbations. Blue arrows: intracellular aggregation. Yellow arrows: empty area within the cell.
as §3

Polymyxin B [PMB, reference compound]
MIC A. baumannii ATCC19606 […] 7.4 ([1]; […] MH, pH 7.4): 0.5 µg/mL | MIC A. baumannii ATCC19606 […] 8.5 ([1]; […] MH, pH 8.5): 0.25 µg/mL | MIC A. baumannii ATCC19606 Full MH 7.4 ([1]; full MH, pH 7.4): 0.25 µg/mL | MIC A. baumannii ATCC19606 Full MH 8.5 ([1]; full MH, pH 8.5): 0.25 µg/mL | MIC E. cloacae ([2]; MH pH 7.4, 16–20 h at 37 °C): 0.5 to 1 µg/mL | MIC E. cloacae ([2]; Table S3, […] MH at pH 8.5): 1 to 2 µg/mL | Antibacterial activity as a function of NaCl concentration ([3]; E. coli W3110, […] MH at pH 8.5, up to 300 mM NaCl): less affected | MIC E. coli W3110 […] 7.4 ([3]; Table S2, […] MH, pH 7.4): 0.5 µg/mL | MIC E. coli W3110 […] 8.5 ([3]; Table S2, […] MH, pH 8.5): 0.25 µg/mL | MIC E. coli W3110 Full MH 7.4 ([3]; Table S2, full MH, pH 7.4): 0.25 µg/mL | MIC E. coli W3110 Full MH 8.5 ([3]; Table S2, full MH, pH 8.5): < 0.1 µg/mL | MIC K. pneumoniae NCTC418 […] 7.4 ([4]; […] MH, pH 7.4): 0.5 µg/mL | MIC K. pneumoniae NCTC418 […] 8.5 ([4]; […] MH, pH 8.5): 0.5 µg/mL | MIC K. pneumoniae NCTC418 Full MH 7.4 ([4]; full MH, pH 7.4): 0.25 µg/mL | MIC K. pneumoniae NCTC418 Full MH 8.5 ([4]; full MH, pH 8.5): 0.25 µg/mL | MIC K. pneumoniae OXA-48 ([5]; MH pH 7.4, 16–20 h at 37 °C): 1 to 2 µg/mL | MIC K. pneumoniae OXA-48 ([5]; Table S3, […] MH at pH 8.5): 1 to 2 µg/mL | Antibacterial activity as a function of NaCl concentration ([6]; P. aeruginosa PAO1, […] MH at pH 8.5, up to 300 mM NaCl): less affected | MIC P. aeruginosa PAO1 […] 7.4 ([6]; Table S2, […] MH, pH 7.4): 0.5 µg/mL | MIC P. aeruginosa PAO1 […] 8.5 ([6]; Table S2, […] MH, pH 8.5): 0.5 µg/mL | MIC P. aeruginosa PAO1 Full MH 7.4 ([6]; Table S2, full MH, pH 7.4): 0.5 µg/mL | MIC P. aeruginosa PAO1 Full MH 8.5 ([6]; Table S2, full MH, pH 8.5): 0.25 µg/mL | MIC P. aeruginosa PAO1 […] ([6]; diluted MH ([…] MH, pH 8.5) per Table 1 footnote b, 16–20 h at 37 °C): 0.5 µg/mL | MIC P. aeruginosa PA14 2P4 [7]: 1 µg/mL | MIC PA14 4.13 (phoQ) ([8]; MH pH 7.4, 16–20 h at 37 °C): 0.25 µg/mL | MIC P. aeruginosa PA14 4.13 ([8]; Table S3, […] MH at pH 8.5): 0.5 µg/mL | MIC PA14 4.18 (pmrB) ([9]; MH pH 7.4, 16–20 h at 37 °C): 1 µg/mL | MIC P. aeruginosa PA14 4.18 ([9]; Table S3, […] MH at pH 8.5): 0.25 µg/mL | MIC S. aureus COL (MRSA) […] 7.4 ([10]; Table S2, […] MH, pH 7.4): 8 µg/mL | MIC S. aureus COL (MRSA) […] 8.5 ([10]; Table S2, […] MH, pH 8.5): 1 µg/mL | MIC S. aureus COL (MRSA) Full MH 7.4 ([10]; Table S2, full MH, pH 7.4): > 64 µg/mL | MIC S. aureus COL (MRSA) Full MH 8.5 ([10]; Table S2, full MH, pH 8.5): 2 µg/mL | MIC S. aureus COL (MRSA) Full ([10]; full MH, pH 7.4, 16–20 h at 37 °C): >32 µg/mL | MIC ZEM-1A ([11]; MH pH 7.4, 16–20 h at 37 °C): <0.13 µg/mL | MIC P. aeruginosa ZEM-1A ([11]; Table S3, […] MH at pH 8.5): 1 µg/mL | MIC ZEM9A ([12]; MH pH 7.4, 16–20 h at 37 °C): 2 µg/mL | MIC P. aeruginosa ZEM9A ([12]; Table S3, […] MH at pH 8.5): 1 to 2 µg/mL | MHC ([13]; Table S2): > 2000 µg/mL | MHC [13]: >2000 µg/mL | MIC B. cenocepacia [14]: >16 µg/mL | MIC P. aeruginosa PA14 ([15]; MH pH 7.4, 16–20 h at 37 °C): <0.13 µg/mL | MIC P. aeruginosa PA14 ([15]; Table S3, […] MH at pH 8.5, 16-20 hours at 37 °C): 0.25 µg/mL | MIC S. aureus Newman ([16]; MH pH 7.4, 16–20 h at 37 °C): >16 µg/mL | MIC S. aureus Newman ([16]; Table S3, […] MH at pH 8.5): 2 µg/mL | MIC S. epidermis ([17]; MH pH 7.4, 16–20 h at 37 °C): >16 µg/mL | MIC S. epidermis ([17]; Table S3, […] MH at pH 8.5): 2 µg/mL | MIC S. maltophilia ([18]; MH pH 7.4, 16–20 h at 37 °C): 0.5 µg/mL | MIC S. maltophilia ([18]; Table S3, […] MH at pH 8.5): 2 µg/mL | Bacteria count after treatment at 10x MIC and 2 h of incubation at 37 °C (% of control) [19]: 1 % of control | TEM micrographs, changes in treated bacteria [20]: blebbing and a disrupted outer membrane
